Test results taken from patent US7396643B2, “Method for the screening, the detection and/or the quantification of transcriptional factors” (Eppendorf Array Technologies, S.A., priority 2000, dated 2008).

Assays:
Type in all cases: cell-based
[1] = tested on: NFκB; test: Microarray assay for DNA-binding activity of NFκB in nuclear cell extracts; conditions: nuclear extracts of WI-38 VA 13 fibroblasts; anti-p50, gold-labelled second antibody, silver; unstimulated cells gave 10
Protocol: Step 1: Binding of the Probes on Glass
Activated glass slides bearing aldehyde groups were purchased from AAT (Belgium).
The slides were first incubated in 0.8 ml of a 50 μg/ml streptavidin solution in a 10 mM phosphate buffer (pH 7.4) containing 10 mM NaCl (PBS10 buffer). After 1 h incubation at 20° C., the plates were washed 3 times for 2 min in PBS150 containing 0.02% Tween 20 and then 2 times 2 min with water. The plates were then incubated for 2 h at 20° C. in 20 ml of PBS150 solution containing 10% non fat dried milk and then washed 5 times 2 min in PBS150 solution.
Spotting was performed with the NFκB consensus probe or with the CREB consensus probe as in example 1. The capture probes were printed onto the microscopic slides with a home made robotic device. 250 μm pins from Genetix (UK) were used. The spots have an average of 400 μm in diameter and the volume dispensed is about 1 nl. The concentration of probes used was 3000 nmolaire. […]
There was no signal for the negative control, while in nuclear cell extracts, activated NFκB is detectable in cell stimulated with IL-1, with a much higher intensity than in unstimulated. The results obtained with the nuclear cell extracts have been quantitated, using a calorimetric microarray reader including the quantification software (AAT, Namur, Belgium). […]

[2] = tested on: CREB; test: Microarray assay of P-CREB, influence of the spacer; conditions: whole cell lysates of WI-38 VA 13 fibroblasts, 10 μg/ml forskolin
Protocol: Step 1: Binding of the Probes on Glass.
The binding of probes was obtained as described in the example 3 using the consensus sequence of NF-KB or CREB alone or with a spacer of 50, 100, 150 and 250 bp constructed from the sequence given in example 1.
Step 2 :Binding of NFκB on the Double Strand Probe Fixed on Micro-array
This assay was performed with whole cell lysates from WI-38 VA 13 fibroblasts stimulated with IL-1β (a NFκB activator) or 10 μg/ml of forskolin(to activate CREB). The control was 20 μl of lysis buffer mixed with 30 μl of binding buffer.
Steps 3, 4 and 5: Binding of Antibodies and Detection
The binding of the primary anti-NFκB and anti-PCREB antibodies was then used for reaction on the factors followed by a second gold labelled antibody and a calorimetric detection as in example 3. […] The values for P-CREB with unstimulated cells were 5.5 and 4 respectively with no spacer and with a 100 base spacer. The values for stimulated cells were respectively of 7 and 21 respectively with no spacer and a spacer of 100 bases pairs.

[3] = tested on: AP-1; test: Microwell colorimetric DNA-binding assay, AP-1 (anti-c-fos); conditions: nuclear extracts of WI-38 VA13 cells stimulated 30 min, 0.1 μg/ml PMA + 1 μM ionomycin, FIG. 2C
Text: Step 1: Binding of the Double Strand Oligonucleotidic Probe on Multi-well Plates
The spacer double strand nucleotide sequences were constructed from the following CMV sequence: • 5′[…] (SEQ ID NO:146) acting as a spacer was linked to a) the NFκB consensus oligonucleotide 5′[…]-3′ (SEQ ID NO:147) b) the CREB consensus oligonucleotide 5′[…]-3′ (SEQ ID NO:148) and c) the AP-1 consensus oligonucleotide 5′[…]-3′ (SEQ ID NO:149). In the example the spacer was of 100 based pairs. […] Plates are then washed and the amount of DNA fixed on streptavidin-coated plates was quantified using the picogreen assay (Molecular Probes, OR, USA). […]
• cells were rinsed with cold PBS150 • cells were left swollen during 3 min in a cold hypotonic buffer (20 mM Hepes pH 7.4, 5 mM NaF, 1 mM Na2MoO4, 0.1 mM EDTA). • Cells were scrapped in 0.5 ml of hypotonic buffer containing 0.2% nonidet P40 and immediately centrifuged during 30 sec at maximal speed (13000 rpm). • The pellet was resuspended in 100 μl of lysis buffer (hypotonic buffer containing 20% glycerol, 0.4 M NaCl, phosphatases and proteases inhibitors cocktail). • The nuclear extract was agitated 30 min at 4° C., and then centrifuged for 10 min at maximal speed (13000 rpm) at 4° C. • The supernatant (=nuclear extract) was frozen at −80° C. and its proteic content was determined by the Bradford assay. […]

IL-1: a NFκB activator used to stimulate cells
spot intensity for activated NFκB, stimulated cells [1]: 175 grey intensity

C=C[C@@]1(C)CC(=O)[C@]2(O)[C@@]3(C)[C@@H](O)CCC(C)(C)[C@@H]3[C@H](O)[C@H](OC(C)=O)[C@@]2(C)O1 [forskolin]
value for P-CREB, stimulated cells, spacer of 100 base pairs ([2]; probe with 100 bp spacer, unstimulated cells gave 4): 21
value for P-CREB, stimulated cells, no spacer ([2]; probe with no spacer, unstimulated cells gave 5.5): 7

CCCCCCCCCCCCCC(=O)O[C@@H]1[C@@H](C)[C@@]2(O)[C@@H](C=C(CO)C[C@]3(O)C(=O)C(C)=C[C@@H]23)[C@@H]2C(C)(C)[C@]12OC(C)=O [PNA]
signal obtained for the assay of c-fos (AP-1) [3]: strongly induced
